Target: c-fms (Homo sapiens, UniProt P07333)
Experiment: c-fms autophosphorylation, fluorescence polarization competition immunoassay
Format: biochemical
Settings: 10 nM c-fms, 1 mM ATP; for inhibition at 0.1 µM: test concentration 0.1 μM, read-out: c-fms Autophosphorylation Percent Inhibition, % @ 0.1 μM; for inhibition at 1 µM: test concentration 1 μM, read-out: c-fms Autophosphorylation Percent Inhibition, % @ 1 μM; for IC50: average of three independent measurements
Protocol: The assay buffer used was 100 mM 4-(2-hydroxyethyl)piperazine 1-ethanesulfonic acid (HEPES), pH 7.5, 1 mM 1,4-dithio-DL-threitol (DTT), 0.01% (v/v) Tween-20. Compounds were diluted in assay buffer containing 4% dimethylsulfoxide (DMSO) just prior to the assay. To each well, 5 μL of compound were added followed by the addition of 3 μL of a mix containing 33 nM c-fms and 16.7 mM MgCl2 (Sigma) in assay buffer. The kinase reaction was initiated by adding 2 μL of 5 mM ATP (Sigma) in assay buffer. The final concentrations in the assay were 10 nM c-fms, 1 mM ATP, 5 mM MgCl2, 2% DMSO. Control reactions were ran in each plate: in positive and negative control wells, assay buffer (made 4% in DMSO) was substituted for the compound; in addition, positive control wells received 1.2 μL of 50 mM ethylenediaminetetraaceticacid (EDTA).
The plates were incubated at room temperature for 45 min. At the end of the incubation, the reaction was quenched with 1.2 μL of 50 mM EDTA (EDTA was not added to the positive control wells at this point; see above). Following a 5-min incubation, each well received 10 μL of a 1:1:3 mixture of anti-phosphotyrosine antibody, 10X, PTK green tracer, 10X (vortexed), FP dilution buffer, respectively (all from PanVera, cat. # P2837). The plate was covered, incubated for 30 min at room temperature and the fluorescence polarization was read on the Analyst. The instrument settings were: 485 nm excitation filter; 530 nm emission filter; Z height: middle of well; G factor: 0.93.
The percent inhibition is shown in Table 1 at the indicated test concentration. The IC50 shown in Table 2 are averages of three independent measurements.

Sequence of c-fms (P07333 20-972): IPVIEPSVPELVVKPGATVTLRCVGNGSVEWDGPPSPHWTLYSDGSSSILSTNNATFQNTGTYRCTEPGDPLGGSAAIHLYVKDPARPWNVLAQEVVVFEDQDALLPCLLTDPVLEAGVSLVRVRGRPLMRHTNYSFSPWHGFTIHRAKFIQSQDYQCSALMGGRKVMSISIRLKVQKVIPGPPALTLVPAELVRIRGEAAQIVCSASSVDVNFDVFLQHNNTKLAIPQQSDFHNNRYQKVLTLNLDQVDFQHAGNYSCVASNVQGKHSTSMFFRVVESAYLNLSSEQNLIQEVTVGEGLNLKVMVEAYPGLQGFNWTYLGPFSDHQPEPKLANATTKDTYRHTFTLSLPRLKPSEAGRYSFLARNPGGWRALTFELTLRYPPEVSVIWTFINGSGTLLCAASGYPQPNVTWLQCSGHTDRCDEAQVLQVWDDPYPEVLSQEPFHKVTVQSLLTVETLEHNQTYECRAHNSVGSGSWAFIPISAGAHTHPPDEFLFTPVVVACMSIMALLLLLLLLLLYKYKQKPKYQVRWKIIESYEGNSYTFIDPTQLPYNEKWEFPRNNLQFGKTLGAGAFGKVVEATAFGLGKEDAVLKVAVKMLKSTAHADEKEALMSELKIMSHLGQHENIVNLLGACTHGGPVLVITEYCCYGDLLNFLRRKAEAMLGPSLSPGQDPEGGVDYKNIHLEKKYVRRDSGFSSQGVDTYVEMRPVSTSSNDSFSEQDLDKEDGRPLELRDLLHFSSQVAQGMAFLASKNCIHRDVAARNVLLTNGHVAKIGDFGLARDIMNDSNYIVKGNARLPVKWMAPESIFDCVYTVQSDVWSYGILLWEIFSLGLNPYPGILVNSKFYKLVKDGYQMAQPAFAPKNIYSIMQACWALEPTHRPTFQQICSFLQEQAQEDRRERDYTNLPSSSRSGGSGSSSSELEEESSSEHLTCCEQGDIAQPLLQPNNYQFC

Row | SMILES | inhibition at 0.1 µM [%] | inhibition at 1 µM [%] | IC50 [nM]
1 | CN1CCN(CCCNc2ncc3c(=O)c(C(N)=O)cn(-c4ccc5c(c4)CCC5)c3n2)CC1 [Cpd 1, 8-Indan-5-yl-2-[4-(4-methyl-piperazin-1-yl)-propylamino]-5-oxo-5,8-dihydro-pyrido[2,3-d]pyrimidine-6-carboxylic acid amide] | 24 | 69.1 | 
2 | NC(=O)c1cn(-c2ccc3c(c2)CCC3)c2nc(NCCN3CCCCC3)ncc2c1=O [Cpd 2, 8-Indan-5-yl-5-oxo-2-(2-piperidin-1-yl-ethylamino)-5,8-dihydro-pyrido[2,3-d]pyrimidine-6-carboxylic acid amide] | 15 | 20 | 
3 | NC(=O)c1cn(-c2ccc3c(c2)CCC3)c2nc(NCCCn3ccnc3)ncc2c1=O [Cpd 3, 2-(3-Imidazol-1-yl-propylamino)-8-indan-5-yl-5-oxo-5,8-dihydro-pyrido[2,3-d]pyrimidine-6-carboxylic acid amide] |  |  | 2300
4 | NC(=O)c1cn(-c2ccc3c(c2)CCC3)c2nc(NCCN3CCOCC3)ncc2c1=O [Cpd 4, 8-Indan-5-yl-2-(2-morpholin-4-yl-ethylamino)-5-oxo-5,8-dihydro-pyrido[2,3-d]pyrimidine-6-carboxylic acid amide] |  |  | 3300
5 | NC(=O)c1cn(-c2ccc3c(c2)CCC3)c2nc(NCCCN3CCOCC3)ncc2c1=O [Cpd 5] |  |  | 2600
6 | CN(C)CCCNc1ncc2c(=O)c(C(N)=O)cn(-c3ccc4c(c3)CCC4)c2n1 [Cpd 6, 2-(3-Dimethylamino-propylamino)-8-indan-5-yl-5-oxo-5,8-dihydro-pyrido[2,3-d]pyrimidine-6-carboxylic acid amide] |  |  | 7100
7 | COCCCNc1ncc2c(=O)c(C(N)=O)cn(-c3ccc4c(c3)CCC4)c2n1 [Cpd 7, 8-Indan-5-yl-2-(3-methoxy-propylamino)-5-oxo-5,8-dihydro-pyrido[2,3-d]pyrimidine-6-carboxylic acid amide] | 17 | 43 | 
8 | NC(=O)c1cn(-c2ccc3c(c2)CCC3)c2nc(NCCCN3CCCC3=O)ncc2c1=O [Cpd 8, 8-Indan-5-yl-5-oxo-2-[3-(2-oxo-pyrrolidin-1-yl)-propylamino]-5,8-dihydro-pyrido[2,3-d]pyrimidine-6-carboxylic acid amide] | 15 | 46 | 
9 | NC(=O)c1cn(-c2ccc3c(c2)CCC3)c2nc(NCCCN3CCCC3)ncc2c1=O [Cpd 9, 8-Indan-5-yl-5-oxo-2-(3-pyrrolidin-1-yl-propylamino)-5,8-dihydro-pyrido[2,3-d]pyrimidine-6-carboxylic acid amide] | 16 | 45 | 
10 | COCCNc1ncc2c(=O)c(C(N)=O)cn(-c3ccc4c(c3)CCC4)c2n1 [Cpd 10, 8-Indan-5-yl-2-(2-methoxy-ethylamino)-5-oxo-5,8-dihydro-pyrido[2,3-d]pyrimidine-6-carboxylic acid amide] | 16 | 41 | 
11 | COc1cc(CNc2ncc3c(=O)c(C(N)=O)cn(-c4ccc5c(c4)CCC5)c3n2)cc(OC)c1 [Cpd 11, 2-(3,5-Dimethoxy-benzylamino)-8-indan-5-yl-5-oxo-5,8-dihydro-pyrido[2,3-d]pyrimidine-6-carboxylic acid amide] | 0 | 50 | 
12 | CNC(=O)c1cn(-c2ccc3c(c2)CCC3)c2nc(NCCCN(C)C)ncc2c1=O [Cpd 12, 2-(3-Dimethylamino-propylamino)-8-indan-5-yl-5-oxo-5,8-dihydro-pyrido[2,3-d]pyrimidine-6-carboxylic acid methylamide] | 2 | 13 | 
13 | CNC(=O)c1cn(-c2ccc3c(c2)CCC3)c2nc(NCCCN3CCOCC3)ncc2c1=O [Cpd 13, 8-Indan-5-yl-2-(3-morpholin-4-yl-propylamino)-5-oxo-5,8-dihydro-pyrido[2,3-d]pyrimidine-6-carboxylic acid methylamide] | 7 | 27 | 
14 | CNC(=O)c1cn(-c2ccc3c(c2)CCC3)c2nc(NCCCN3CCCC3=O)ncc2c1=O [Cpd 14, 8-Indan-5-yl-5-oxo-2-[3-(2-oxo-pyrrolidin-1-yl)-propylamino]-5,8-dihydro-pyrido[2,3-d]pyrimidine-6-carboxylic acid methylamide] | 5 | 24 | 
15 | CNC(=O)c1cn(-c2ccc3c(c2)CCC3)c2nc(NCCCN3CCN(C)CC3)ncc2c1=O [Cpd 15, 8-Indan-5-yl-2-[3-(4-methyl-piperazin-1-yl)-propylamino]-5-oxo-5,8-dihydro-pyrido[2,3-d]pyrimidine-6-carboxylic acid methylamide] | 8 | 29 | 
16 | CNC(=O)c1cn(-c2ccc3c(c2)CCC3)c2nc(NCCOC)ncc2c1=O [Cpd 16, 8-Indan-5-yl-2-(2-methoxy-ethylamino)-5-oxo-5,8-dihydro-pyrido[2,3-d]pyrimidine-6-carboxylic acid methylamide] | 12 | 39 | 
17 | CNC(=O)c1cn(-c2ccc3c(c2)CCC3)c2nc(NCCc3ccc(OC)cc3)ncc2c1=O [Cpd 17, 8-Indan-5-yl-2-[2-(4-methoxy-phenyl)-ethylamino]-5-oxo-5,8-dihydro-pyrido[2,3-d]pyrimidine-6-carboxylic acid methylamide] | 15 | 36 | 
18 | CNC(=O)c1cn(-c2ccc3c(c2)CCC3)c2nc(NCCN3CCOCC3)ncc2c1=O [Cpd 18, 8-Indan-5-yl-2-(2-morpholin-4-yl-ethylamino)-5-oxo-5,8-dihydro-pyrido[2,3-d]pyrimidine-6-carboxylic acid methylamide] | 12 | 35 | 
19 | CONC(=O)c1cn(-c2ccc3c(c2)CCC3)c2nc(NCCCn3ccnc3)ncc2c1=O [Cpd 19, 2-(3-Imidazol-1-yl-propylamino)-8-indan-5-yl-5-oxo-5,8-dihydro-pyrido[2,3-d]pyrimidine-6-carboxylic acid methoxy-amide] | 36 | 70 | 
20 | CONC(=O)c1cn(-c2ccc3c(c2)CCC3)c2nc(NCCCN(C)C)ncc2c1=O [Cpd 20, 2-(3-Dimethylamino-propylamino)-8-indan-5-yl-5-oxo-5,8-dihydro-pyrido[2,3-d]pyrimidine-6-carboxylic acid methoxy-amide] | 20 | 52 | 
21 | COCCCNc1ncc2c(=O)c(C(=O)NOC)cn(-c3ccc4c(c3)CCC4)c2n1 [Cpd 21, 8-Indan-5-yl-2-(3-methoxy-propylamino)-5-oxo-5,8-dihydro-pyrido[2,3-d]pyrimidine-6-carboxylic acid methoxy-amide] | 50 | 82 | 
22 | CONC(=O)c1cn(-c2ccc3c(c2)CCC3)c2nc(NCCCN3CCCC3=O)ncc2c1=O [Cpd 22, 8-Indan-5-yl-5-oxo-2-[3-(2-oxo-pyrrolidin-1-yl)-propylamino]-5,8-dihydro-pyrido[2,3-d]pyrimidine-6-carboxylic acid methoxy-amide] | 40 | 72 | 
23 | COCCNc1ncc2c(=O)c(C(=O)NOC)cn(-c3ccc4c(c3)CCC4)c2n1 [Cpd 23, 8-Indan-5-yl-2-(2-methoxy-ethylamino)-5-oxo-5,8-dihydro-pyrido[2,3-d]pyrimidine-6-carboxylic acid methoxy-amide] | 51 | 65 | 
24 | CONC(=O)c1cn(-c2ccc3c(c2)CCC3)c2nc(NCCc3ccc(OC)cc3)ncc2c1=O [Cpd 24, 8-Indan-5-yl-2-[2-(4-methoxy-phenyl)-ethylamino]-5-oxo-5,8-dihydro-pyrido[2,3-d]pyrimidine-6-carboxylic acid methoxy-amide] | 52 | 59 | 
25 | CONC(=O)c1cn(-c2ccc3c(c2)CCC3)c2nc(NCCN3CCCCC3)ncc2c1=O [Cpd 25, 8-Indan-5-yl-5-oxo-2-(2-piperidin-1-yl-ethylamino)-5,8-dihydro-pyrido[2,3-d]pyrimidine-6-carboxylic acid methoxy-amide] | 6 | 30 | 
26 | CONC(=O)c1cn(-c2ccc3c(c2)CCC3)c2nc(NCCN3CCOCC3)ncc2c1=O [Cpd 26, 8-Indan-5-yl-2-(2-morpholin-4-yl-ethylamino)-5-oxo-5,8-dihydro-pyrido[2,3-d]pyrimidine-6-carboxylic acid methoxy-amide] | 25 | 54 | 
27 | CONC(=O)c1cn(-c2ccc3c(c2)CCC3)c2nc(NCc3cc(OC)cc(OC)c3)ncc2c1=O [Cpd 27, 2-(3,5-Dimethoxy-benzylamino)-8-indan-5-yl-5-oxo-5,8-dihydro-pyrido[2,3-d]pyrimidine-6-carboxylic acid methoxy-amide] | 15 | 41 | 

Source: patent publication US7728003B2, “5-oxo-5,8-dihydro-pyrido-pyrimidines as inhibitors of c-fms kinase” (Janssen Pharmaceutica N.V., priority 2005, dated 2010)
